The source of these data is patent US20060069036A1, “Methods of treatment of inflammation using glutathiones” (priority 2004, published 2006).

One series deals with psoriasis lesions. The source says: As of the filing of this application, a preliminary program of clinical testing has been conducted. […] Patients instructed to apply the product twice daily to the affected areas.
In the next series the test system is GSH levels. The note with it: oral administration, cited from earlier work.
Setting [1] is: patients with psoriasis symptoms, topical cream 45 mg/ml GSH in phospholipid carrier, twice daily.

For the compound `N[C@@H](CCC(=O)N[C@@H](CS)C(=O)NCC(=O)O)C(=O)O` [reduced glutathione (GSH), N-L-gamma-glutamyl-cysteinyl glycine], the adverse side effects entry in the series on psoriasis lesions (clinical studies to date, topical application) is “no adverse side effects”. For the same compound, in the series on psoriasis lesions (patients with psoriasis symptoms, topical cream 45 mg/ml GSH in phospholipid carrier, applied twice daily to affected areas), the “response of patient lesions to treatment” value is listed as “significantly improved”. In the series on psoriasis lesions (setting [1]), the “elasticity and supple feeling of the skin” value is “returned”; the “inflammation, irritation, and erythema of the skin” value is “decreased”; the “time after first application to significant improvement (in some cases clearing) of lesions” value is ≤ 24 h.

Consider `O=C(O)CCCCC1CCSS1` (stereo not drawn) [alpha-lipoic acid, Alpha-lipoic acid], for which, in the series with GSH levels (HIV patients), the “effect on GSH levels” value is “raises GSH levels”. In addition, in the series with GSH levels, the safety and tolerability entry was “extremely safe and well tolerated”.
